Patent US8293481B2, “Biomarkers for chronic vascular dysfunction” (Mayo Foundation for Medical Education and Research, priority 2006, dated 2012)

How the values were obtained:
Type in all cases: in vivo, rat
[1] = test system: aortic smooth muscle strips; assay: Dose-response relationship to 8-Br-cGMP, relaxation of aortic smooth muscle strips from treated rats; conditions: post-infarct animals treated with captopril, at both 2 and 4 weeks; P>0.05
Description: After intubation, rats were ventilated continuously (room air) using a small animal ventilator (Model 683, Harvard Apparatus, Holliston, Mass.). A left lateral thoracotomy incision was made along the 5th intercostal space and after the pericardium was opened, the heart was exteriorized using a retention suture placed at the apex. The left anterior descending coronary artery (LAD) was ligated twice using 6-0 prolene suture (Ethicon, Cornelia, Ga.). After chest closure with running 3-0 vicryl suture (Ethicon), rats were put in a recovery chamber with a heating pad and warming light. The post-operative survival rate reached 80%. […] Rats were fed a standard diet of Teklad rodent feed (Harlan) ad libitum and kept on a 12:12 h light-dark cycle. Rats were sacrificed at designated time intervals of 2 weeks and 4 weeks after surgery. […] Determination of the dose-response relationship to cGMP: Aortic smooth muscle strips were isolated from rats in the uninfarcted control group without treatment and from both placebo as well as captopril treated group at 2 weeks and 4 weeks post-LAD ligation to determine the dose-response relationship to cGMP. […] After the force reached a steady state, the dose-response relationship to 8-Br-cGMP (Calbiochem, San Diego, Calif.) was determined.

Agt (angiotensinogen) = assay: Real-time PCR gene expression in aorta post MI; conditions: 4 weeks post-infarction (increased at 2 weeks), FIG. 1
Description: (§1) After intubation, rats were ventilated continuously (room air) using a small animal ventilator (Model 683, Harvard Apparatus, Holliston, Mass.). A left lateral thoracotomy incision was made along the 5th intercostal space and after the pericardium was opened, the heart was exteriorized using a retention suture placed at the apex. The left anterior descending coronary artery (LAD) was ligated twice using 6-0 prolene suture (Ethicon, Cornelia, Ga.). After chest closure with running 3-0 vicryl suture (Ethicon), rats were put in a recovery chamber with a heating pad and warming light. The post-operative survival rate reached 80%. […] Rats were fed a standard diet of Teklad rodent feed (Harlan) ad libitum and kept on a 12:12 h light-dark cycle. Rats were sacrificed at designated time intervals of 2 weeks and 4 weeks after surgery. […] Isolation of total RNA: […] Surrounding peri-adventitial tissues, fat, and endothelium were then carefully cleaned away and removed. The remaining vascular smooth muscle was then frozen with liquid nitrogen, pulverized into fine powder, and resuspended in 600 μl of Buffer RLT with β-ME (10 μl β-ME: 1 ml Buffer RLT, Qiagen, Valencia, Calif.). The lysate was pipetted directly onto a QIAshredder spin column (Qiagen) placed in a 2 ml collection tube and centrifuged for 5 minutes at 14000 rpm, 4° C. The supernatant was transferred to a new microcentrifuge tube and 1 volume of 70% ethanol was added and mixed. The cleared lysate was then transferred to an RNeasy mini-column (Qiagen) placed in a 2 ml collection tube and spun for 15 seconds at ≧10,000 rpm, 4° C. The flow-through was discarded and 700 μl of Buffer RW1 (Qiagen) was added to the RNeasy column. After the column was spun for 15 seconds at ≧10,000 rpm (4° C.), it was transferred into a new 2 ml collection tube, washed, spun twice with 500 μl Buffer RPE (Qiagen), and eluted with 40 μl of RNase-free water using a microcentrifuge (≧10,000 rpm, 4° C.) for 1 minute. Final RNA samples were stored at -20° C. to prevent degradation. Confirmation of microarray result by quantitative real-time PCR: The remaining RNA from the aortic or portal vein RNA sample was quantitatively converted to single stranded cDNA using the High-Capacity cDNA Archive Kit (Applied Biosystems, Foster City, Calif.). Briefly, 50 μl of RNA sample was mixed with 50 μl of 2×RT master mix (10 μl of 10× Reverse Transcription Buffer, 4 μl of 25× dNTPs, 10 μl of 10× random primers, 5 μl of […] Reverse Transcriptase at 50 U/μl, 21 μl of RNase-free H2O) and pipetted into 0.2 ml MICROAMP® PCR Reaction Tubes with Caps (Applied Biosystems, Foster City, Calif.). Reverse transcription was performed using a thermal cycler (Eppendorf Mastercycler gradient) with incubation conditions set at 25° C. for 10 minutes followed by 37° C. for 120 minutes. The synthesized cDNA was then mixed with TAQMAN® Universal PCR Master Mix (2.5 μl of cDNA+47.5 μl of RNase-free H2O+50 μl of Master Mix) and loaded onto 384-Well micro fluid cards for quantitative real-time PCR (TAQMAN® Low Density Arrays, Applied Biosystems). This was done with customer-selected TAQMAN® Gene Expression Assays preloaded into each of the 384 wells. The 7900 HT Gene Expression Micro Fluid Card Configuration 2 (Applied Biosystems) with a total of 24 targets was used; 22 targets were selected to include the results from the microarray study, and the remaining two targets were controls GAPDH and 18S controls. For each cDNA sample, four replicates were analyzed for real-time PCR. After all ports of the Micro Fluidic Card were loaded with cDNA, it was spun for even distribution into the wells using a Sorvall Legend centrifuge (1 minute at 1200 rpm). The array was then run on the Applied Biosystems 7900HT Fast Real-time PCR System, and the data were analyzed using an Applied Biosystems RQ Manager Software (SDS 2.1). […]

[2] = test system: Baat (bile acid-Coenzyme A amino acid N-acyltransferase); assay: Real-time PCR gene expression in aorta post MI; conditions: 2 weeks post-infarction
Description: as §1

[3] = test system: MIR16 (membrane interacting protein of RGS16); assay: Real-time PCR gene expression in aorta post MI; conditions: 4 weeks post-infarction (increased at 2 weeks), FIG. 1
Description: as §1

[4] = test system: Raf1 (v-raf-1 murine leukemia viral oncogene homolog 1); assay: Real-time PCR gene expression in aorta post MI; conditions: 2 weeks post-infarction
Description: as §1

Rock2 (Rho kinase 2) = assay: Real-time PCR gene expression in aorta post MI; conditions: 2 weeks post-infarction
Description: as §1

Taok1 (TAO kinase 1) = assay: Real-time PCR gene expression in aorta post MI; conditions: 2 weeks post-infarction
Description: as §1

C[C@H](CS)C(=O)N1CCC[C@H]1C(=O)O [Captopril, 1-[(2S)-3-mercapto-2-methylpropionyl]-L-proline]
sensitivity of cGMP-mediated relaxation versus uninfarcted control aorta [1]: not different | Agt expression, captopril versus placebo (Agt (angiotensinogen)): difference disappeared | Baat expression, placebo or captopril therapy [2]: did not demonstrate any difference | MIR16 expression, captopril versus placebo [3]: difference disappeared | Raf1 expression, placebo or captopril therapy [4]: did not demonstrate any difference | Rock2 expression, placebo or captopril therapy (Rock2 (Rho kinase 2)): did not demonstrate any difference | Taok1 expression, placebo or captopril therapy (Taok1 (TAO kinase 1)): did not demonstrate any difference
